Our source for the Activity values is ChEMBL document CHEMBL1147341, “Unprecedented oxylipins from the marine green alga Acrosiphonia coalita” (J Nat Prod, 1993).

This assay has as its system Candida albicans. In words: Antifungal activity against Candida albicans at 100 ug/disk by sensitive disk method. The class given is functional, organism-based.

Activity calls are given as the source filed them. The calls are words filed in the database; no cut-off is given here.

For `CC[C@H](O)/C=C/C=C/C=C/C=O`, the result was Active.
